Data set [1] is described as follows: Cellular cytotoxic activity, mock-infected feline thymocytes, trypan blue exclusion staining. In kind it is cell-based. As to conditions: cat, read-out: CC50 (50% cytotoxic concentration). As for the experimental part: (§1) The cytotoxicity of the compounds was determined in parallel to the experiments under assay 1 on mock-infected feline thymocytes respectively CRFK cells cultured in the presence or absence of different concentrations of the compound.
Cytotoxicity on feline thymocytes was determined by trypan blue exclusion staining whereby the CC50 for compound (6) was measured as >10 nM.

Data set [2] relates to FIV strain Thymo-113. Nature of the data set: Inhibitory activity on FIV replication wild type, feline thymocytes (FIV p24 ELISA). Format: cell-based. The following applies: Feline immunodeficiency virus, Thymocyte, 144 h, primary feline thymocytes, FIV strain Thymo-113, 6 days, read-out: EC50 (concentration required to reduce antigen production by 50%). As for the experimental part:
(§2) The anti-FIV activity of the compounds was tested in primary feline thymocytes isolated form specific pathogen free cats, and in Crandell feline kidney (CRFK) cells.
Feline thymocytes were maintained in complete Iscove's Modified Medium (Iscoves medium supplemented with GlutamaxI (Invitrogen/Gibco BRL), 10% inactivated fetal calf serum, antibiotics (100 IU/ml penicillin and 100 μg/ml streptomycin) 2-Mercapto-ethanol (50 μM) and 100 IU/ml human recombinant IL-2 (Chiron). Cells were seeded into a 96 well plate (5×10^4 cells per well) and pre-incubated with four-fold dilutions of the antiviral compound. Plates were incubated for 1 hour in a humidified incubator with a 5% CO2 atmosphere at 37° C. Subsequently, cells were inoculated with 100 TCID50 of FIV strain Thymo-113 in the presence of the different concentrations of compound. After 2 hours cells were washed twice in Iscove's medium and new medium containing the different concentrations of compound were added. After incubation for 6 days the supernatant was harvested and the amount of virus within the supernatant determined using a FIV p24 ELISA. The 50% effective concentration (EC50) was defined as the concentration of the compound required to reduce the antigen production by 50% compared to untreated controls.

In data set [3] the test system is FIV strain Utrecht-113. Nature of the data set: Inhibitory activity on FIV replication wild type, CRFK cells (FIV p24 ELISA). In kind it is cell-based. The following applies: Feline immunodeficiency virus, 144 h, FIV strain Utrecht-113, 6 days, read-out: EC50 (concentration required to reduce antigen production by 50%). On the procedure: as §2
Crandell Feline Kidney (CRFK) cells were maintained in DMEM (Dulbecco's Modified Eagle's Medium (Lonza) supplemented with, 10% inactivated fetal calf serum, antibiotics (100 IU/ml penicillin and 100 μg/ml streptomycin). Cells were seeded into a 96 well plate (5×10^4 cells per well) and pre-incubated with four-fold dilutions of the antiviral compound for 1 hours. The CrFK cells were washed with PBS DEAE 50 mg/l, inoculated with 100 TCID50 of FIV strain Utrecht-113 in the presence of the different concentrations of compound and subsequently incubated for 2 hours in a humidified incubator with a 5% CO2 atmosphere at 37° C. After 2 hours cells were washed twice in DMEM medium and new medium containing the different concentrations of compound were added. After incubation for 6 days the supernatant was harvested and the amount of virus within the supernatant determined using a FIV p24 ELISA. The 50% effective concentration (EC50) was defined as the concentration of the compound required to reduce the antigen production by 50% compared to untreated controls.

A short description of data set [4]: Cellular cytotoxic activity, mock-infected CRFK cells, MTT assay. In kind it is cell-based, feline. As to conditions: cat, read-out: CC50 (50% cytotoxic concentration). As for the experimental part: as §1
After 6 days of incubation cell viability of the CRFK cells was measured by using a colorimetric MTT assay. A solution of 3-(4,5-dimethylthiazol-2-yl)-2,5-diphenyltetrazolium bromide (MTT) in PBS at a final concentration of 0.5 mg/ml was added to each well. After 2 hours incubation at 37 C and 5% CO2, the medium containing the MTT was removed and the cells were lysed by addition of 200 μl DMSO to each well. Following 10 minutes incubation at room temperature on a rocking plate, the optical density (OD) values at […] were determined. The compound concentration that decreased the viability of 50% of the cells was defined as the 50% cytotoxic concentration (CC50).

Regarding `CN1c2nc(c(O)c3ncccc23)C(=O)NCc2ccc(F)cc2C(=O)NCCCCCS1(=O)=O` [Compound 6], the CC50 in data set [1] is more than 10 nM. The EC50 in data set [2] and in data set [3] was 20 nM each time. Further, in data set [4], the CC50 at 6 days is more than 10 nM.
